Reference: ChEMBL document CHEMBL2150939, “Synthesis and cytotoxicity of novel ursolic acid derivatives containing an acyl piperazine moiety” (Eur J Med Chem, 2012)

Legend:
[1] = Growth inhibition of mouse NIH/3T3 cells at 10 uM after 72 hrs by MTT assay; assay type: cell-based, NIH3T3; settings: read-out: GI
MGC-803 [2] = assay: Antiproliferative activity against human MGC803 cells after 72 hrs by MTT assay; assay type: functional, cell-based; settings: MGC-803, 72 h
MGC-803 [3] = assay: Growth inhibition of human MGC803 cells at 10 uM after 72 hrs by MTT assay; assay type: functional; settings: MGC-803, 72 h, read-out: GI
Bcap37 [4] = assay: Growth inhibition of human Bcap37 cells at 10 uM after 72 hrs by MTT assay; assay type: functional; settings: Bcap37, 72 h, read-out: GI
Bcap37 [5] = assay: Antiproliferative activity against human Bcap37 cells after 72 hrs by MTT assay; assay type: functional, cell-based; settings: Bcap37, 72 h, read-out: IC50

| Structure (SMILES) | IC50 (MGC-803 [2]) [µM] | inhibition at 72 h, 10 µM [1] [%] | inhibition of growth at 10 µM (MGC-803 [3]) [%] | inhibition of growth at 10 µM (Bcap37 [4]) [%] | IC50 (Bcap37 [5]) [µM] |
| --- | --- | --- | --- | --- | --- |
| C[C@H]1[C@H](C)CC[C@]2(C(=O)OCCN3CCN(C(=O)c4c(F)cccc4Cl)CC3)CC[C@]3(C)C(=CC[C@@H]4[C@@]5(C)CC[C@H](O)C(C)(C)[C@@H]5CC[C@]43C)[C@H]12 | 4.18 | 24.4 | 92.1 | 85.3 | 4.32 |
| C[C@H]1[C@H](C)CC[C@]2(C(=O)OCCN3CCN(C(=O)Cc4ccc(Cl)cc4)CC3)CC[C@]3(C)C(=CC[C@@H]4[C@@]5(C)CC[C@H](O)C(C)(C)[C@@H]5CC[C@]43C)[C@H]12 | 8.59 | 2.9 | 68.6 | 52 | 10 |
| CCCCC(CC)C(=O)N1CCN(CCOC(=O)[C@]23CC[C@@H](C)[C@H](C)[C@H]2C2=CC[C@@H]4[C@@]5(C)CC[C@H](O)C(C)(C)[C@@H]5CC[C@@]4(C)[C@]2(C)CC3)CC1 (stereo partly specified) | 6.89 | 54.5 | 80.8 | 68.6 | 4.16 |
| C[C@H]1[C@H](C)CC[C@]2(C(=O)OCCN3CCN(C(=O)c4ccc(F)cc4F)CC3)CC[C@]3(C)C(=CC[C@@H]4[C@@]5(C)CC[C@H](O)C(C)(C)[C@@H]5CC[C@]43C)[C@H]12 | 12.5 | 18.1 | 32.1 | 60.5 | 8.31 |
| C[C@H]1[C@H](C)CC[C@]2(C(=O)OCCN3CCNCC3)CC[C@]3(C)C(=CC[C@@H]4[C@@]5(C)CC[C@H](O)C(C)(C)[C@@H]5CC[C@]43C)[C@H]12 | 7.25 | 60.1 | 86.6 | 84.4 | 7.5 |
| C[C@H]1[C@H](C)CC[C@]2(C(=O)OCCN3CCN(C(=O)c4ccc([N+](=O)[O-])cc4)CC3)CC[C@]3(C)C(=CC[C@@H]4[C@@]5(C)CC[C@H](O)C(C)(C)[C@@H]5CC[C@]43C)[C@H]12 |  | 65.4 | 24.3 | 19.1 |  |
| C[C@H]1[C@H](C)CC[C@]2(C(=O)OCCN3CCN(C(=O)c4cccnc4)CC3)CC[C@]3(C)C(=CC[C@@H]4[C@@]5(C)CC[C@H](O)C(C)(C)[C@@H]5CC[C@]43C)[C@H]12 |  | 52.3 | 22 | 24.5 |  |
| CCCCCCCCC(=O)N1CCN(CCOC(=O)[C@]23CC[C@@H](C)[C@H](C)[C@H]2C2=CC[C@@H]4[C@@]5(C)CC[C@H](O)C(C)(C)[C@@H]5CC[C@@]4(C)[C@]2(C)CC3)CC1 | > 20 | 12 | 44.2 | 12.5 |  |
| C[C@H]1[C@H](C)CC[C@]2(C(=O)OCCN3CCN(C(=O)c4ccccc4)CC3)CC[C@]3(C)C(=CC[C@@H]4[C@@]5(C)CC[C@H](O)C(C)(C)[C@@H]5CC[C@]43C)[C@H]12 |  | 19.1 | 21.4 | 23.9 |  |
| C[C@H]1[C@H](C)CC[C@]2(C(=O)OCCN3CCN(C(=O)c4ccnc(Cl)c4)CC3)CC[C@]3(C)C(=CC[C@@H]4[C@@]5(C)CC[C@H](O)C(C)(C)[C@@H]5CC[C@]43C)[C@H]12 |  | 44.3 | 24.1 | 19 |  |
| C[C@H]1[C@H](C)CC[C@]2(C(=O)OCCN3CCN(C(=O)c4cc(Cl)ccc4[N+](=O)[O-])CC3)CC[C@]3(C)C(=CC[C@@H]4[C@@]5(C)CC[C@H](O)C(C)(C)[C@@H]5CC[C@]43C)[C@H]12 | 9.41 | 77.7 | 57.3 | 33.2 |  |
| C=C/C=C/CC(=O)N1CCN(CCOC(=O)[C@]23CC[C@@H](C)[C@H](C)[C@H]2C2=CC[C@@H]4[C@@]5(C)CC[C@H](O)C(C)(C)[C@@H]5CC[C@@]4(C)[C@]2(C)CC3)CC1 |  | 35 | 23.4 | 14.7 |  |
| COc1ccc(C(=O)N2CCN(CCOC(=O)[C@]34CC[C@@H](C)[C@H](C)[C@H]3C3=CC[C@@H]5[C@@]6(C)CC[C@H](O)C(C)(C)[C@@H]6CC[C@@]5(C)[C@]3(C)CC4)CC2)cc1OC |  | 73.1 | 24.5 | 51.8 | 11.1 |
| C[C@H]1[C@H](C)CC[C@]2(C(=O)OCCBr)CC[C@]3(C)C(=CC[C@@H]4[C@@]5(C)CC[C@H](O)C(C)(C)[C@@H]5CC[C@]43C)[C@H]12 | 12.4 | 11 | 39.4 | 23.1 |  |
| C[C@H]1[C@H](C)CC[C@]2(C(=O)OCCN3CCN(C(=O)c4cc([N+](=O)[O-])cc([N+](=O)[O-])c4)CC3)CC[C@]3(C)C(=CC[C@@H]4[C@@]5(C)CC[C@H](O)C(C)(C)[C@@H]5CC[C@]43C)[C@H]12 |  | 37.2 | 24.7 | 10.7 |  |

Further lines, with some results ahead:

| IC50 (MGC-803 [2]) [µM] | Structure (SMILES) | inhibition at 72 h, 10 µM [1] [%] | inhibition of growth at 10 µM (MGC-803 [3]) [%] | inhibition of growth at 10 µM (Bcap37 [4]) [%] | IC50 (Bcap37 [5]) [µM] |
| --- | --- | --- | --- | --- | --- |
| 5.02 | CC(C)c1ccc(C(=O)N2CCN(CCOC(=O)[C@]34CC[C@@H](C)[C@H](C)[C@H]3C3=CC[C@@H]5[C@@]6(C)CC[C@H](O)C(C)(C)[C@@H]6CC[C@@]5(C)[C@]3(C)CC4)CC2)cc1 | 5.5 | 72.3 | 45.5 | 11.8 |
| 12.6 | C[C@H]1[C@H](C)CC[C@]2(C(=O)OCCN3CCN(C(=O)/C=C/c4ccccc4)CC3)CC[C@]3(C)C(=CC[C@@H]4[C@@]5(C)CC[C@H](O)C(C)(C)[C@@H]5CC[C@]43C)[C@H]12 | 39 | 51.1 | 54.4 | 9.22 |
| > 20 | C[C@H]1[C@H](C)CC[C@]2(C(=O)OCCN3CCN(C(=O)c4cccc(F)c4)CC3)CC[C@]3(C)C(=CC[C@@H]4[C@@]5(C)CC[C@H](O)C(C)(C)[C@@H]5CC[C@]43C)[C@H]12 | 33.5 | 45.3 | 32.1 |  |
| 13.3 | C[C@H]1[C@H](C)CC[C@]2(C(=O)OCCN3CCN(C(=O)c4ccncc4)CC3)CC[C@]3(C)C(=CC[C@@H]4[C@@]5(C)CC[C@H](O)C(C)(C)[C@@H]5CC[C@]43C)[C@H]12 | 55.4 | 32.1 | 8.3 |  |
| 3.59 | Cc1ccccc1C(=O)N1CCN(CCOC(=O)[C@]23CC[C@@H](C)[C@H](C)[C@H]2C2=CC[C@@H]4[C@@]5(C)CC[C@H](O)C(C)(C)[C@@H]5CC[C@@]4(C)[C@]2(C)CC3)CC1 | 60.3 | 98.9 | 94.8 | 5.34 |
| 14 | C[C@H]1[C@H](C)CC[C@]2(C(=O)OCCN3CCN(C(=O)c4cccnc4Cl)CC3)CC[C@]3(C)C(=CC[C@@H]4[C@@]5(C)CC[C@H](O)C(C)(C)[C@@H]5CC[C@]43C)[C@H]12 | 4.3 | 34.3 | 29 |  |
